From EP1171102B1, “ANHYDROUS TABLET OF RANITIDINE HYDROCHLORIDE WITH DOUBLE-LAYER COATING AND ITS COMPOSITION” (priority 1999, dated 2000)
Structures can show the parent of a compound that is named as a salt.

Key:
[1] = Hygroscopicity and conversion of the crystalline forms on storage; assay type: physicochemical; conditions: product made by the method of the invention; chemico-physical analysis
[2] = cited from earlier work; for hygroscopicity: comparison of Form 1 and Form 2, hydrochloride
[3] = cited from earlier work

CNC(=C[N+](=O)[O-])NCCSCc1ccc(CN(C)C)o1.Cl [anhydrous ranitidine hydrochloride]
conversion into the allomorphous Form 2 during the storage [1]: not gradually converted during the storage into the allomorphous Form 2

CNC(=C[N+](=O)[O-])NCCSCc1ccc(CN(C)C)o1 [ranitidine hydrochloride Form 2, ranitidine hydrochloride]
hygroscopicity [2]: less hygroscopic than Form 1

CNC(=C[N+](=O)[O-])NCCSCc1ccc(CN(C)C)o1 [ranitidine hydrochloride Form 1, ranitidine hydrochloride]
hygroscopicity [2]: more hygroscopic than Form 2
conversion into Form 2 ([2]; room temperature, in the presence of moisture): may be converted in small amounts in the presence of moisture into Form 2

CNC(=C[N+](=O)[O-])NCCSCc1ccc(CN(C)C)o1 [ranitidine hydrochloride]
water solubility ([3]; both allomorphous forms (Form 1 and Form 2)): 900 mg in 1 ml of water
solubility ([3]; in water, at 25° C): over 900 mg/ml
